Assay results published in patent US12024515B2, “Kifunensine derivatives” (University of Kansas, priority 2021, dated 2024).
Numbered stars: 1 amine (or outer) side, 2 acyl side, 3 side chain; on linkers, the order of the positions; unused ones are H or OH. Bridge positions count the residues as written; N and C are the ends. Square brackets hold non-standard residues; d marks the D form. Peptide text beside a SMILES is read from it. I, II: the chains in the order shown. Actinocin(9to1) = Cc1c2oc3c(C)ccc(C(=O)[*:1])c3nc-2c(C(=O)[*:2])c(N)c1=O; NMeV = CN[C@H](C(=O)O)C(C)C; Sar = CNCC(=O)O

Tests used:
Raji cells [1] = assay: CD20 expression in Raji cells (flow cytometry of surface CD20, western blotting); type: cell-based; settings: for effect on Kif mediated CD20 upregulation: with Kif 25 μM, actinomycin D 10 μg/ml, cycloheximide 100 μg/ml, 48 hours (FIG. 2A); for cell surface expression of CD20: 48 hours, flow cytometry, Kif 25 μM, Swain 25 μM, DMJ 1 mM, DIM 1 mM (FIG. 1A, 1C)
Protocol: (§1) FIGS. 1A-1E relate to kifunensine (“Kif”) induced expression of CD20. Raji cells were incubated with Kif for 48 hours and CD20 levels on the cell surface levels were analyzed by flow cytometry (FIG. 1A) and in whole cell lysate by western blotting (FIG. 1B). Raji cells were preincubated with Kif (25 μM), Swain (25 μM), DMJ (1 mM), and DIM (1 mM) or vehicle for 48 hours, and the cell surface levels of CD20 were analyzed by flow cytometry (FIG. 1C). Cells were incubated with Kif (25 μM) or vehicle for 48 hours and the cell surface levels of CD20 were analyzed by flow cytometry (FIG. 1D). Raji and rituximab resistant cells were incubated with Kif (25 μM) or vehicle for 48 hours and the cell surface levels of CD20 were analyzed by flow cytometry (FIG. 1E). Results are presented as a percentage of MFI of vehicle treated control cells (±SD). Statistical significance was determined with Kruskal-Wallis test, *P<0.033, **P<0.002, ****P<0.001, vs control.
Staining of surface antigens. Cells were treated for 48 hours with the described inhibitors at the indicated concentrations or with DMSO controls. Cells were then harvested, washed twice with cold flow buffer (PBS (GIBCO) containing 0.5% BSA and 0.1% sodium azide (Fisher)), stained for 1 hour with 0.25 μg of anti-CD20 mAb (clone 2H7) conjugated with Super Bright 645 (eBioscience, ThermoFisher Scientific), then washed twice with flow buffer, and finally the cells were incubated with flow buffer containing 2.5 μg/mL 7-aminoactinomycin (7-AAD, eBioscience, ThermoFisher Scientific) for 10 minutes prior to being analyzed using an Attune NxT Flow Cytometer. CD20 expression was assessed in 7-AAD negative cells.

[2] = system: panel of cells lines representing diffuse large B cell lymphoma, Burkitt lymphoma, and follicular lymphoma; assay: Cell surface CD20 in a panel of B cell lymphoma cell lines (flow cytometry); type: cell-based; settings: 25 μM, 48 hours, flow cytometry (FIG. 1D)
Protocol: as §1
(§2) Staining of surface antigens. Cells were treated for 48 hours with the described inhibitors at the indicated concentrations or with DMSO controls. […] CD20 expression was assessed in 7-AAD negative cells.

[3] = system: rituximab resistant cell lines (Raji 2R, Raji 4RH, RL 4RH); assay: Cell surface CD20 in rituximab resistant cell lines (flow cytometry); type: cell-based; settings: 25 μM, 48 hours (FIG. 1E)
Protocol: as §1, §2

[4] = system: patient derived primary CLL samples; assay: CD20 expression in patient derived primary CLL samples; type: cell-based
MS4A1 = assay: CD20 mRNA (MS4A1) expression by RT-PCR; type: cell-based; settings: Raji cells, Kif 25 μM, 48 hours, RT-PCR (FIG. 2B)
Protocol: FIGS. 2A-2B illustrates that Kif mediates CD20 upregulation occurs upstream of transcription and translation. Cells were incubated with Kif (25 μM), Kif (25 μM) plus actinomycin D (10 μg/ml), Kif (25 μM) plus cycloheximide (100 μg/ml), or vehicle control (Con) for 48 hours and the cell surface levels of CD20 were analyzed by flow cytometry (FIG. 2A). Cells were incubated with Kif (25 μM) or vehicle control (Con) for 48 hours and CD20 mRNA levels were analyzed by RT-PCR (FIG. 2B).

Raji cells [5] = assay: Histone acetylation in Raji cells; type: cell-based
malignant B cell lines [6] = assay: ADCC assay with anti-CD20 antibody and CD16+ NK-92 effector cells; type: cell-based
Protocol: FIGS. 3A-3B illustrate Kif potentiates the activity of anti-CD20 antibodies in vitro. Cells were incubated with Kif (25 μM) or vehicle control (Con) for 48 hours prior to rituximab mediated ADCC (FIG. 3A) or CDC (FIG. 3B). ADCC assays. Target cells were labelled with CellTrace Violet according to the manufacturer's instructions (ThermoFisher Scientific). In brief, 1 million target cells were washed twice with warm PBS, then stained with 5 μM CellTrace Violet in PBS for 20 minutes at 37° C. Then, 5 volume equivalents of complete media were added and the resulting solution was incubated for 10 minutes at 37° C. The cells were pelleted and washed twice with fresh complete media, and the cell suspension was adjusted to 800,000 cells/mL in complete media. 25 μL of the target cell suspension (i.e., 20,000 target cells) were then in added to a 96-well plate. 25 μL of rituximab solutions at 4× the indicated concentrations in complete media or complete media were added to experiment wells and the control wells respectively, and the resulting suspensions were incubated for 30 minutes at 37° C. Subsequently, 50 μL of a 1.6 million CD-16+ NK-92 cells/mL suspension in complete media (E:T 4:1, i.e., 80,000 effector cells) were added to experiment wells and control wells (i.e., no antibody) and the plate was incubated for 4 hours at 37° C. in a fully humidified atmosphere of 5% CO2. Subsequently, 6 uL of 2.5 μg/mL was added to each well and after 10 minutes the plate was analyzed using an Attune NxT Flow Cytometer. Target cell viability was accessed by determining the percentage of CellTrace Violet and 7-AAD positive cells. ADCC was calculated as follows: % ADCC=% 7-AAD positive target cells in experiment well—% 7-AAD positive target cells in control wells.

malignant B cell lines [7] = assay: CDC assay with anti-CD20 antibody and pooled human serum; type: cell-based
Protocol: FIGS. 3A-3B illustrate Kif potentiates the activity of anti-CD20 antibodies in vitro. Cells were incubated with Kif (25 μM) or vehicle control (Con) for 48 hours prior to rituximab mediated ADCC (FIG. 3A) or CDC (FIG. 3B). CDC assays. 25 μL of the target cell suspension at 2 million cells/mL (i.e., 50,000 target cells) were added to a 96-well plate. 25 μL of antibody solutions at 4× the indicated concentrations in complete media or complete media were added to experiment wells and the control wells respectively, and the resulting suspensions were incubated for 30 minutes at 37° C. Subsequently, 50 μL of a 20% of pooled human serum in complete media were added to experiment wells and control wells (i.e., no antibody) and the plate was incubated for 1 hours at 37° C. in a fully humidified atmosphere of 5% CO2. Subsequently, 6 uL of 2.5 μg/mL was added to each well and after 10 minutes the plate was analyzed using an Attune NxT Flow Cytometer. Target cell viability was accessed by determining the percentage of 7-AAD positive cells. CDC was calculated as follows: % CDC=% 7-AAD positive target cells in experiment well—% 7-AAD positive target cells in control wells.

[8] = system: Raji cells and Rituximab resistant Raji 4RH cells; assay: In vivo CD20 expression in subcutaneous Raji and Raji 4RH tumors (Western blot); settings: SCID mice, i.p., 10 mg/kg every second day over 8 days
Protocol: In vivo increase in CD20 expression of Raji cells and Rituximab resistant Raji 4RH cells. A study was performed to determine whether Kif can increase the expression of CD20 on Raji cells and Rituximab resistant Raji 4RH cells that had been subcutaneously inoculated into the flank of six week old SCID mice. After inoculation, tumors were permitted to grow for 10 days prior to treatment initiation. The mice were randomly divided into control and treatment groups. Control group received PBS, while the treatment group received Kif (i.p., 10 mg/kg) every second day over an 8 day period. The mice were then scarified, tumors were harvested, and CD20 expression was assessed by Western blot.

Cc1c2oc3c(C)ccc(C(=O)N[C@@H]4C(=O)N[C@H](C(C)C)C(=O)N5CCC[C@H]5C(=O)N(C)CC(=O)N(C)[C@@H](C(C)C)C(=O)O[C@@H]4C)c3nc-2c(C(=O)N[C@@H]2C(=O)N[C@H](C(C)C)C(=O)N3CCC[C@H]3C(=O)N(C)CC(=O)N(C)[C@@H](C(C)C)C(=O)O[C@@H]2C)c(N)c1=O [ACT-D, actinomycin D] (I: T[dV]P[Sar][NMeV] / II: T[dV]P[Sar][NMeV]; ester I:1-I:C, II:1-II:C; linker I:N-II:N via Actinocin(9to1)) was tested, and the “effect on Kif mediated CD20 upregulation” value (Raji cells [1]) was “inhibit Kif mediated CD20 upregulation”.
In the case of C[C@@H]1C[C@@H]([C@H](O)CC2CC(=O)NC(=O)C2)C(=O)[C@@H](C)C1 [CHX, cycloheximide], the “effect on Kif mediated CD20 upregulation” value (Raji cells [1]) is reported as “inhibit Kif mediated CD20 upregulation”.
With OC[C@@H](O)[C@H]1NC[C@@H](O)[C@H]1O [DIM, 1,4-dideoxy-1,4-imino-D-mannitol] the “cell surface expression of CD20” value (Raji cells [1]; Raji cells) was “significantly increase CD20 expression”.
With OC[C@H]1NC[C@@H](O)[C@@H](O)[C@@H]1O [DMJ, 1-deoxymannojirimycin hydrochlorie] the “cell surface expression of CD20” value (Raji cells [1]; Raji cells) was “significantly increase CD20 expression”.
O=C1N[C@@H]2[C@@H](O)[C@@H](O)[C@H](O)[C@@H](CO)N2C1=O [Kif, kifunensine] was tested, and the “cell surface expression of CD20” value (Raji cells [1]; Raji cells) was “increases cell surface expression of CD20 in Raji cells in a concentration dependent manner”, the “CD20 expression by western blotting” value (Raji cells [1]; Raji cells, whole cell lysate, 48 hours (FIG. 1B)) was “increase CD20 expression was confirmed by western blotting” and the “CD20 upregulation in panel of cell lines” value [2] was “upregulates CD20”. The “CD20 expression in rituximab resistant cell lines” value [3] was “significantly increased CD20 expression”, the “CD20 expression in primary CLL samples” value [4] was “increases CD20 expression in a dose-dependent and significant manner” and the “expression of MS4A1” value (MS4A1) was “altered the expression of the MS4A1”. For the same molecule, the histone acetylation (Raji cells [5]) was “did not significantly alter histone acetylation”, the “obinutuzumab potency in combination with Kif” value (malignant B cell lines [6]; ADCC) was “potency of obinutuzumab was also increased” and the “sensitization of rituximab resistant cell lines to rituximab (ADCC)” value (malignant B cell lines [6]; Raji 2R and Raji 4RH) was “sensitized to the action of rituximab”. For the same molecule, the “rituximab potency in ADCC in combination with Kif” value (malignant B cell lines [6]; all cell lines tested, Kif 25 μM 48 hours before rituximab mediated ADCC (FIG. 3A)) was “potency of rituximab was increased”, the “complement mediated killing without antibody” value (malignant B cell lines [7]; Kif treated cells, absence of antibody) was “more susceptible to complement mediated killing in the absence of antibody” and the “susceptibility to CDC with rituximab and ofatumumab” value (malignant B cell lines [7]; cells treated with Kif prior to CDC (FIG. 3B)) was “rendered cells more susceptible”. For the same molecule, the “sensitization of rituximab resistant cells to CDC” value (malignant B cell lines [7]; rituximab resistant cells, data not shown) was “not sensitized to CDC”, the side effects [8] was “no side effects were observed” and the “CD20 expression in tumors” value ([8]; Western blot, Raji and Raji 4RH) was “increases the expression of CD20”.
O[C@H]1[C@H]2[C@H](O)CCCN2C[C@H]1O [Swain, swainsonine] was tested, and the “cell surface expression of CD20” value (Raji cells [1]; Raji cells) was “significantly increase CD20 expression”.
